Reference: PubChem BioAssay AID504352 (Southern Research Specialized Biocontainment Screening …, 2011)
Active and inactive are the calls of the source.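 Rule for the calls: active = compounds cutting HIV-1 replication by at least half at any tested dose; inactive = the rest.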

The compounds below were run on MAGI-CCR5 cells, HIV-1 BaL, beta-gal luminescence, 48 h (assay: R5 HIV-1 replication inhibitors in MAGI cells, MAGI-CCR5 cells, beta-gal luminescence, 2% serum, set 3 (AID 504352)).

Question: How did the IC50 turn out when `Cc1c2c(=O)n(-c3nc4ccccc4s3)nc-2cc(O)n1Cc1ccc(F)cc1` was run?
Answer: Its IC50 is 3.89 µM.

Question: How did the IC50 turn out when `O=C(O)CCC(C(=O)O)N1C(=O)/C(=C\c2ccco2)SC1=S` (stereo not drawn) was run?
Answer: The IC50 was > 100 µM (inactive).

Question: With `CS(=O)(=O)C1=NSC2=NC(=O)/C(=C\c3cccn3-c3cc(Cl)cc(Cl)c3)C(=N)N21` as the compound, how does the IC50 read?
Answer: Its IC50 is 33.7 µM.

Question: With `Cc1c2c(=O)n(-c3nc4ccccc4s3)nc-2cc(O)n1CCc1cccs1` as the compound, how does the IC50 read?
Answer: The IC50 was 3.98 µM.

Question: For `CS(=O)(=O)C1=NSC2=NC(=O)/C(=C\c3cccn3-c3cccc(Cl)c3)C(=N)N21`, which IC50 is on record?
Answer: Its IC50 is 52.1 µM.

Question: With `COc1ccc(Cn2c(O)cc3nn(-c4nc5ccccc5s4)c(=O)c-3c2C)cc1` as the compound, how does the IC50 read?
Answer: The IC50 was 4.1 µM.

Question: Which IC50 does the source give for `O=C(O)CCCN1C(=O)/C(=C/c2ccc(-c3ccc(Cl)c(Cl)c3)o2)SC1=S` here?
Answer: Its IC50 is 27.4 µM.

Question: Which IC50 does the source give for `COc1cccc(C2C(C(=O)Nc3ccccc3)=C(C)N=c3sc(=Cc4ccc(OCC(=O)O)cc4)c(=O)n32)c1` (stereo not drawn) here?
Answer: The IC50 was 55.4 µM.

Question: `CS(=O)(=O)C1=NSC2=NC(=O)/C(=C\c3cccn3-c3cccc(C(F)(F)F)c3)C(=N)N21` was tested. Which IC50 did it give?
Answer: The IC50 was 47.3 µM.

Question: With `CCOC(=O)C1=C(C)N=c2sc(=Cc3ccc(OCC(=O)O)cc3)c(=O)n2C1c1ccc(OC)cc1OC` (stereo not drawn) as the compound, how does the IC50 read?
Answer: Its IC50 is 44.7 µM.

Question: `Cc1c2c(=O)n(-c3nc4ccccc4s3)nc-2cc(O)n1Cc1ccccc1Cl` was tested. Which IC50 did it give?
Answer: Its IC50 is 3.68 µM.

Question: `CS(=O)(=O)C1=NSC2=NC(=O)/C(=C\c3cccn3-c3ccc(Br)cc3)C(=N)N21` was tested. Which IC50 did it give?
Answer: Its IC50 is 43.5 µM.

Question: Which IC50 does the source give for `CS(=O)(=O)C1=NSC2=NC(=O)/C(=C\c3cccn3-c3ccc(Cl)c(Cl)c3)C(=N)N21` here?
Answer: Its IC50 is 42.1 µM.

Question: For `CCOC(=O)C1=C(C)N=c2s/c(=C\c3ccc(OCC(=O)O)cc3)c(=O)n2C1c1ccc(Cl)cc1` (stereo not drawn), which IC50 is on record?
Answer: The IC50 was 38.1 µM.

Question: With `COc1cccc(-n2cccc2/C=C2/C(=N)N3C(=NC2=O)SN=C3S(C)(=O)=O)c1` as the compound, how does the IC50 read?
Answer: The IC50 was 37 µM.

Question: For `COc1ccccc1Cn1c(O)cc2nn(-c3nc4ccccc4s3)c(=O)c-2c1C`, which IC50 is on record?
Answer: Its IC50 is 1.9 µM.

Question: Which IC50 does the source give for `Cc1c2c(=O)n(-c3nc4ccccc4s3)nc-2cc(O)n1C1CC1` here?
Answer: Its IC50 is 0.56 µM.

Question: With `O=C(O)CCCN1C(=O)/C(=C\c2ccc(-c3ccc(Cl)cc3)o2)SC1=S` as the compound, how does the IC50 read?
Answer: The IC50 was 2.88 µM.

Question: For `CS(=O)(=O)C1=NSC2=NC(=O)/C(=C\c3cccn3-c3ccc(F)cc3)C(=N)N21`, which IC50 is on record?
Answer: Its IC50 is 35.1 µM.

Question: For `O=C(O)c1ccc(C2Nc3ccc(S(=O)(=O)Nc4cc(Cl)ccc4Cl)cc3C3C=CCC32)cc1` (stereo not drawn), which IC50 is on record?
Answer: The IC50 was 1.68 µM.

Question: With `CCOC(=O)C1=C(C)N=c2sc(=Cc3ccc(OCC(=O)O)cc3)c(=O)n2C1c1cc(OC)c(OC)c(OC)c1` (stereo not drawn) as the compound, how does the IC50 read?
Answer: The IC50 was > 100 µM (inactive).

Question: How did the IC50 turn out when `O=C(O)c1ccc([C@@H]2Nc3ccc(S(=O)(=O)Nc4cccc5ccccc45)cc3[C@@H]3C=CC[C@@H]32)cc1` was run?
Answer: Its IC50 is 3.71 µM.

Question: With `O=C(O)c1ccc(C[n+]2c(-c3ccccc3)csc2Nc2ccccc2)cc1` as the compound, how does the IC50 read?
Answer: Its IC50 is 49.5 µM.

Question: Which IC50 does the source give for `CCOC(=O)C1=C(C)N=c2sc(=Cc3ccc(OCC(=O)O)cc3)c(=O)n2C1c1ccccc1OC` (stereo not drawn) here?
Answer: The IC50 was 45.1 µM.

Question: `CCOc1ccc(-n2cccc2/C=C2/C(=N)N3C(=NC2=O)SN=C3S(C)(=O)=O)cc1` was tested. Which IC50 did it give?
Answer: The IC50 was 24.3 µM.

Question: With `Cc1c2c(=O)n(-c3nc4ccccc4s3)nc-2cc(O)n1Cc1cccnc1` as the compound, how does the IC50 read?
Answer: Its IC50 is 1.95 µM.

Question: How did the IC50 turn out when `CS(=O)(=O)C1=NSC2=NC(=O)/C(=C\c3cccn3-c3cccc(F)c3)C(=N)N21` was run?
Answer: Its IC50 is 38.9 µM.

Question: `O=C(O)CCCN1C(=O)/C(=C/c2ccc(-c3cccc(C(F)(F)F)c3)o2)SC1=S` was tested. Which IC50 did it give?
Answer: The IC50 was 32.4 µM.

Question: `CC1=C(C(=O)OC(C)C)C(c2ccc(Cl)cc2)n2c(s/c(=C\c3ccc(OCC(=O)O)cc3)c2=O)=N1` (stereo not drawn) was tested. Which IC50 did it give?
Answer: The IC50 was > 100 µM (inactive).

Question: Which IC50 does the source give for `Cc1c2c(=O)n(-c3nc4ccccc4s3)nc-2cc(O)n1CCc1ccc(O)cc1` here?
Answer: The IC50 was 2.83 µM.

Question: `CCOC(=O)C1=C(C)N=c2s/c(=C\c3ccc(OCC(=O)O)cc3)c(=O)n2C1c1ccc(OC)c(OCC)c1` (stereo not drawn) was tested. Which IC50 did it give?
Answer: Its IC50 is 33.6 µM.

Question: With `Cc1ccc(-n2cccc2/C=C2/C(=N)N3C(=NC2=O)SN=C3S(C)(=O)=O)cc1` as the compound, how does the IC50 read?
Answer: The IC50 was 35.1 µM.

Question: For `O=C(O)CCCN1C(=O)/C(=C\c2ccc(-c3cccc(Cl)c3)o2)SC1=S`, which IC50 is on record?
Answer: Its IC50 is 15.2 µM.

Question: With `Cc1ccc(-n2cccc2/C=C2/C(=N)N3C(=NC2=O)SN=C3S(C)(=O)=O)cc1C` as the compound, how does the IC50 read?
Answer: The IC50 was 36.1 µM.

Question: With `COc1ccccc1NS(=O)(=O)c1ccc2c(c1)C1C=CCC1C(c1ccc(C(=O)O)cc1)N2` (stereo not drawn) as the compound, how does the IC50 read?
Answer: The IC50 was 2.87 µM.

Question: `O=C(O)c1ccc(C[n+]2c(-c3ccc([N+](=O)[O-])cc3)csc2Nc2ccccc2)cc1` was tested. Which IC50 did it give?
Answer: The IC50 was 15 µM.

Question: How did the IC50 turn out when `CS(=O)(=O)C1=NSC2=NC(=O)/C(=C\c3cccn3-c3ccc(Cl)cc3)C(=N)N21` was run?
Answer: The IC50 was 41.7 µM.

Question: Which IC50 does the source give for `Cc1c2c(=O)n(-c3nc4ccccc4s3)nc-2cc(O)n1Cc1ccncc1` here?
Answer: Its IC50 is 4.4 µM.

Question: Which IC50 does the source give for `Cc1c2c(=O)n(-c3nc4ccccc4s3)nc-2cc(O)n1CCC(C)C` here?
Answer: Its IC50 is 2.16 µM.

Question: `CCc1ccc(-c2ccc(/C=C3\SC(=S)N(CCCC(=O)O)C3=O)o2)cc1` was tested. Which IC50 did it give?
Answer: Its IC50 is 3.43 µM.

Question: `COc1ccc(-c2ccc(/C=C3\SC(=S)N(CCCC(=O)O)C3=O)o2)cc1` was tested. Which IC50 did it give?
Answer: The IC50 was 56.5 µM.

Question: How did the IC50 turn out when `CCOC(=O)C1=C(C)N=c2sc(=Cc3ccc(OCC(=O)O)cc3)c(=O)n2C1c1ccc(F)cc1` (stereo not drawn) was run?
Answer: Its IC50 is 36.1 µM.

Question: Which IC50 does the source give for `Cc1c2c(=O)n(-c3nc4ccccc4s3)nc-2cc(O)n1Cc1cccs1` here?
Answer: Its IC50 is 2.27 µM.

Question: For `COc1ccc(CCn2c(O)cc3nn(-c4nc5ccccc5s4)c(=O)c-3c2C)cc1`, which IC50 is on record?
Answer: The IC50 was 13.4 µM.

Question: How did the IC50 turn out when `O=C(O)CCCN1C(=O)/C(=C\c2ccc(-c3ccc(Br)cc3)o2)SC1=S` was run?
Answer: Its IC50 is > 100 µM (inactive).

Question: How did the IC50 turn out when `CCOC(=O)C1=C(C)N=c2sc(=Cc3ccc(OCC(=O)O)cc3)c(=O)n2C1c1ccccc1` (stereo not drawn) was run?
Answer: The IC50 was 43.6 µM.

Question: How did the IC50 turn out when `O=C(O)CCCN1C(=O)/C(=C/c2cc3ccccc3o2)SC1=S` was run?
Answer: The IC50 was 7.55 µM.

Question: For `Nc1sc2ccccc2[n+]1Cc1ccc(C(=O)O)cc1`, which IC50 is on record?
Answer: Its IC50 is > 100 µM (inactive).

Question: How did the IC50 turn out when `O=C(O)CCCN1C(=O)/C(=C\c2ccc(-c3ccc(F)cc3)o2)SC1=S` was run?
Answer: The IC50 was 37 µM.

Question: Which IC50 does the source give for `COc1ccc(-n2cccc2/C=C2/C(=N)N3C(=NC2=O)SN=C3S(C)(=O)=O)cc1Cl` here?
Answer: Its IC50 is 32.1 µM.

Question: With `CCc1ccc(-n2cccc2/C=C2/C(=N)N3C(=NC2=O)SN=C3S(C)(=O)=O)cc1` as the compound, how does the IC50 read?
Answer: Its IC50 is 36.2 µM.

Question: With `CCOC(=O)C1=C(c2ccccc2)N=c2s/c(=C\c3ccc(OCC(=O)O)cc3)c(=O)n2C1c1cccc(OC)c1` (stereo not drawn) as the compound, how does the IC50 read?
Answer: Its IC50 is 6.6 µM.

Question: With `Cc1ccc(-c2ccc(/C=C3\SC(=S)N(CCCC(=O)O)C3=O)o2)cc1` as the compound, how does the IC50 read?
Answer: Its IC50 is 10.9 µM.
